Measured values from the NIST ThermoML archive (doi:10.1016/j.jct.2005.03.007).

Assay: Solid-liquid equilibrium temperature
Conditions: Crystal

CCCCCCCCCCCCCCCCCC [octadecane]
pressure-volume curve discontinuities
Conditions	Solid-liquid equilibrium temperature [K]
8860 kPa	303.15
49600 kPa	313.15
94900 kPa	323.15
144780 kPa	333.15
199220 kPa	343.15
258230 kPa	353.15

CCCCCCCCCCCCCCCC [hexadecane]
pressure-volume curve discontinuity
Conditions	Solid-liquid equilibrium temperature [K]
9210 kPa	293.15
50650 kPa	303.15
95560 kPa	313.15
143920 kPa	323.15
195740 kPa	333.15
251030 kPa	343.15

c1ccccc1 [benzene]
pressure-volume curve discontinuity
Conditions	Solid-liquid equilibrium temperature [K]
53620 kPa	293.15
92220 kPa	303.15
133290 kPa	313.15
176820 kPa	323.15
222810 kPa	333.15
271270 kPa	343.15
322200 kPa	353.15
